Where two headings read alike, the source gives them in different places. Where a SMILES comes first, the peptide text is derived from it. Where no end group is shown, it is not given here.
What was measured:
Caco-2 DPP-IV activity = molecular target: T1, Caco-2 DPP-IV activity (Homo sapiens, UniProt P27487); assay: In situ DPP-IV activity inhibition using live confluent Caco-2 cells (Gly-Pro-AMC substrate); format: cell-based; settings: synthetic peptides identified in basolateral side, read-out: In Situ IC50 (DPP-IV inhibitory activity)
T1 construct: In situ method using confluent Caco-2 cells described by Caron et al. was slightly modified and used to study DPP-IV activity; host or cells: Caco-2 cells, live and confluent, 7 days after seeding
T1 sequence (P27487 whole entry): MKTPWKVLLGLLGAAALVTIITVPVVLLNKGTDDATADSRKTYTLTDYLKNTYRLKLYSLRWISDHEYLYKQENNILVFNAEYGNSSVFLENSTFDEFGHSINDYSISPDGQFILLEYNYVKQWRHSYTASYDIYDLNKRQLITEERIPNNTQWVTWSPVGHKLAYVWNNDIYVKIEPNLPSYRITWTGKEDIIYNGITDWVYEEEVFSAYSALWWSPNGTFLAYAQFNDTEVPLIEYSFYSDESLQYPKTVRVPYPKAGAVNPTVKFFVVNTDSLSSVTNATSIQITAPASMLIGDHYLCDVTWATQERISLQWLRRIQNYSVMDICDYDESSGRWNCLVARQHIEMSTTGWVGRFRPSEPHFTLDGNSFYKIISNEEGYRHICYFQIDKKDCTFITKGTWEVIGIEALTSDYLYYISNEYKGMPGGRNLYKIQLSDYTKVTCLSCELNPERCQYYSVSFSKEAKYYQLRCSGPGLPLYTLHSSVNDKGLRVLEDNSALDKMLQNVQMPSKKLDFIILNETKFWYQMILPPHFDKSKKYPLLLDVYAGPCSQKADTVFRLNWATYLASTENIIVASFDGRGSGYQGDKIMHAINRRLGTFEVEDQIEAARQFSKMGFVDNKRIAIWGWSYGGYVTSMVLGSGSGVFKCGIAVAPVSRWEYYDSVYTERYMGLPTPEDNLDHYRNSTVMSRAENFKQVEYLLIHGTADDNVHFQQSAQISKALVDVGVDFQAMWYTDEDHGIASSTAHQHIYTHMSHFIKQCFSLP
Method: (§1) Cells were grown in flask of 75 cm^2 at 37 °C, 5% CO2 atmosphere in DMEM supplemented with 4.5 g L^−1 of glucose, 10% of fetal bovine serum, 100 U mL^−1 of penicillin, 100 µg mL^−1 of streptomycin and 2 mM of L-glutamine. Caco-2 and STC-1 cells were weekly and twice a week subcultured, respectively. All cells used in this study were between the 40 and the 50 passages for Caco-2 cells and between the 10 and 30 passages for STC-1 cells.
In situ method using confluent Caco-2 cells described by Caron et al. was slightly modified and used to study DPP-IV activity. A 1 mM (Gly-Pro-AMC) substrate solution, the digests and the synthetic peptides dilutions were prepared in phosphate saline buffer pH 7.4 (PBS). Briefly, after 7 days of growth, Caco-2 cells were trypsinized and seeded at a density of 8000 cells/well in 96-well optical black plates (Nunc, ThermoFisher Scientific, Rochester, NY, USA). After 7 days, culture media were removed from wells and the cells were washed with 100 µL of PBS buffer (pH 7.4). […] After 5 min of incubation at 37 °C, 50 µL of (Gly-Pro-AMC) substrate solution were added to each well. Fluorescence was recorded every 2 min for 1 h at 37 °C using a Xenius XC spectrofluorometer (Safas Monaco, Monaco). Excitation wavelength was set to […] while the emission wavelength was of 480 nm. The percentage of the DPP-IV activity inhibition was defined as the percentage of DPP-IV activity inhibited by a given concentration of digest or diprotin A (commercial DPP-IV peptide inhibitor) as positive control compared with control buffer response. […] IC50 was expressed in mg mL^−1 or in mM.

EECs [1] = settings: cited from earlier work
EECs [2] = test system: EECs; set-up: method as in PMID 28460928, doi:10.1016/j.jff.2017.06.047; settings: hemorphins from bovine hemoglobin digestion; cited from earlier work
murine GLUTag cells = test system: murine GLUTag cells; set-up: method as in earlier work; settings: α-actinin-2 sequences; cited from earlier work
DPP-IV = assay: In vitro (biochemical) DPP-IV inhibitory activity test; settings: synthetic peptides identified in basolateral side
STC-1 cells [3] = assay: Active GLP-1 secretion in STC-1 cells, radioimmunoassay of supernatant; format: cell-based; settings: 1 mM, 2 h, versus buffer control
Method: as §1, with “The Caco-2 cell line was purchased from Sigma-Aldrich (Villefranche-sur-Saône, France) and the STC-1 cell line was a grateful gift received from Corinne Grangette (Univ. Lille, CNRS, Inserm, CHU Lille, Institut Pasteur de Lille, U1019-UMR 8204-CIIL, France). Cells” for “Cells”
When 80–90% confluence was reached, STC-1 cells were trypsinized and seeded at a density of 40,000 cells/well in 24-wells culture plates (ThermoFisher Scientific, Saint Aubin, France) allowing to reach 60–80% confluence. Cell culture medium was removed from each well and cells were washed with phosphate saline buffer (PBS, 10 mM, pH 7.4). 250 µL of digests (2 to 10 mg mL^−1) or synthetic peptides (1 mM) diluted in Hepes buffer (4.5 mM KCl, 1.2 mM CaCl2, 140 mM NaCl and 20 mM Hepes, pH 7.4) were then added. Hepes buffer was used as a negative control. […]

STC-1 cells [4] = test system: STC-1 cells; set-up: method as in PMID 32516710; settings: peptides from egg white SGID intestinal digest; cited from earlier work
[5] = sequences from bovine hemoglobin intestinal digest
[6] = egg white protein digest peptides
[7] = hemorphins from bovine hemoglobin digestion

CSSGK [CSSGK]
IC50 (Caco-2 DPP-IV activity): > 2500 µM

VDAGAP [VDAGAP]
IC50 (Caco-2 DPP-IV activity): > 2500 µM

KAAVT
GLP-1 secretion stimulation (EECs [1]; [5]): able to stimulate the secretion of GLP-1

PFL
GLP-1 secretion stimulation (EECs [1]; [6]): able to stimulate GLP-1 secretion

VAPEEHPT
IC50 (Caco-2 DPP-IV activity): 2270 µM

LLVVYPWT [hemorphin released during bovine hemoglobin digestion]
CCK secretion stimulation (EECs [2]): CCK and GLP-1 secretion stimulating peptides
GLP-1 secretion stimulation (EECs [1]; [7]): CCK and GLP-1 secretion stimulating peptides

RVASMASEKM [peptide from egg white protein digest]
GLP-1 secretion stimulation (EECs [1]; [6]): GLP-1 secretagogue

VVYPWTQRF [hemorphin released during bovine hemoglobin digestion]
CCK secretion stimulation (EECs [2]): CCK and GLP-1 secretion stimulating peptides
GLP-1 secretion stimulation (EECs [1]; [7]): CCK and GLP-1 secretion stimulating peptides

LGG
GLP-1 secretion stimulation (EECs [1]): able to stimulate GLP-1 secretion

AAAA
GLP-1 secretion stimulation (EECs [1]): able to stimulate GLP-1 secretion

KPYIL
GLP-1 secretion stimulation (murine GLUTag cells): able to stimulate the GLP-1 secretion in murine GLUTag cells

C[C@@H](O)[C@H](NC(=O)[C@H](Cc1ccc(O)cc1)NC(=O)[C@H](CC(=O)O)NC(=O)[C@@H](N)CCC(=O)O)C(=O)O [EDYT] (H-EDYT-OH; N-terminus and C-terminus assumed)
IC50 (Caco-2 DPP-IV activity): > 2500 µM
IC50 (DPP-IV): > 2500 µM

GPVRGPFPIIV [literature GLP-1 stimulating peptide]
GLP-1 secretion stimulation (EECs [1]): able to stimulate GLP-1 secretion

ELLK
active GLP-1 release stimulation by synthetic peptide (STC-1 cells [3]): did not lead to GLP-1 secretion

CC(C)C[C@H](NC(=O)[C@@H]1CCCN1C(=O)[C@@H](N)CC(=O)O)C(=O)N[C@H](C(=O)O)C(C)C [DPLV] (H-DPLV-OH)
IC50 (Caco-2 DPP-IV activity): > 2500 µM

VADTMEVV
IC50 (DPP-IV): 603 µM

YGAE
GLP-1 secretion stimulation (EECs [1]; [5]): able to stimulate the secretion of GLP-1

ASDKPYIL [α-actinin-2 derived peptide]
GLP-1 secretion stimulation (murine GLUTag cells): also active

LKPT
active GLP-1 release stimulation by synthetic peptide (STC-1 cells [3]): able to significantly stimulate active-GLP-1 release

LVVYPWT [hemorphin released during bovine hemoglobin digestion]
CCK secretion stimulation (EECs [2]): CCK and GLP-1 secretion stimulating peptides
GLP-1 secretion stimulation (EECs [1]; [7]): CCK and GLP-1 secretion stimulating peptides

VVYPWT
CCK secretion stimulation (EECs [2]): CCK and GLP-1 secretion stimulating peptides
GLP-1 secretion stimulation (EECs [1]; [7]): CCK and GLP-1 secretion stimulating peptides

CSSGGY [CSSGGY]
IC50 (Caco-2 DPP-IV activity): 2160 µM

TKAVEH
GLP-1 secretion stimulation (EECs [1]; [5]): able to stimulate the secretion of GLP-1

CC(C)C[C@H](NC(=O)[C@H](CC(=O)O)NC(=O)[C@@H]1CCCN1)C(=O)N[C@H](C(=O)O)C(C)C [PDLV] (H-PDLV-OH)
IC50 (Caco-2 DPP-IV activity): > 2500 µM

GGGG
GLP-1 secretion stimulation (EECs [1]): able to stimulate GLP-1 secretion

GWGG
GLP-1 secretion stimulation (EECs [1]): able to stimulate GLP-1 secretion

VLLPDEVSGL [peptide from egg white SGID intestinal digest]
CCK secretion stimulation (STC-1 cells [4]): able to stimulate CCK secretion in STC-1 cells

ANVST
GLP-1 secretion stimulation (EECs [1]; [5]): able to stimulate the secretion of GLP-1

C[C@@H](O)[C@H](NC(=O)[C@H](CC(=O)O)NC(=O)[C@@H](N)CCC(=O)O)C(=O)N[C@@H](Cc1ccc(O)cc1)C(=O)O [EDTY] (H-EDTY-OH; N-terminus and C-terminus assumed)
IC50 (Caco-2 DPP-IV activity): > 2500 µM
IC50 (DPP-IV): > 2500 µM

VLLPD
CCK secretion stimulation (STC-1 cells [4]): able to stimulate CCK secretion in STC-1 cells

— paper PMC7796187, “New Bioactive Peptides Identified from a Tilapia Byproduct Hydrolysate Exerting Effects on DPP-IV Activity and Intestinal Hormones Regulation after Canine Gastrointestinal Simulated Digestion” (Molecules, 2020)
